Columns and labels:
MCF7 cells = experiment: MCF7 cell activity test (CCK8 proliferation inhibition); assay type: cell-based; details: Homo sapiens, MCF7, 144 h, 6 days incubation
Experimental: Experimental Example 1: MCF7 cell activity test
Cell culture: MCF7 cells (culture conditions: MEM medium+20% FBS+1% essential amino acids++1 mg/100 ml insulin, 37° C., 5% CO2). Plating: The cells subcultured into the logarithmic growth phase were collected and transferred into a centrifuge tube, and centrifuged at 800 rpm for 5 min. The cells were resuspended in complete medium and counted. The cells were diluted and adjusted to a final concentration of 30,000 cells/mL. The cells were then seeded into a 96-well plate with 100 μL per well and incubated in an incubator overnight. Administration: Each group of drug solutions was added into the 96-well plate, 100 μL per well, n=3 for each drug concentration. Meanwhile, negative wells (n=6) and blank wells (n=3) were set up. The 96-well plate was incubated in the incubator for further 6 days. CCK8 reagent was added to the 96-well plate, 20 μL per well, and then the plate was placed in the incubator for further 4 h. The absorbance of the solution was measured at a wavelength of 450 nm using an enzyme reader. The proliferation inhibition rate was calculated and the half inhibitory concentration IC50 value was calculated using Graphpad Prism 6.0 software.

MCF-7 tumor = experiment: In vivo tumor inhibitory activity test (MCF-7 tumor, estradiol-supplemented mice); details: 5 mg/kg/d (I.V.), Day 19, relative tumor volume inhibition rate, P < 0.05
Experimental: Experimental Example 3: In Vivo Tumor Inhibitory Activity Test
MCF-7 cell culture (culture conditions: MEM medium+20% FBS+1% essential amino acids ++1 mg/100 ml insulin, 37° C., 5% CO2). The cells subcultured into the logarithmic growth phase were collected and transferred into a centrifuge tube, and centrifuged at 800 rpm for 5 min. On the day of inoculation, the cell density was adjusted to 3*10^7 cells/mL. […]
Grouped administration: When the average tumor volume reached 80-150 mm^3, the animals were randomly grouped according to tumor volume, with the coefficient of variation (CV) of tumor volumes not exceeding ⅓ of the mean volume. […] The body weight of the mice was measured before administration, and the administration was based on the body weight on that day. Experimental observation and data collection: After cell inoculation, the effect of the tumor on the normal behavior of the animals was routinely monitored every week. […] After the start of administration, the mice were weighed and dosed daily, and tumor volume was measured twice a week. The tumor volume was calculated as follows: tumor volume (mm^3)=0.52×tumor long diameter (mm) x tumor short diameter (mm) 2. […]
[formula] […] All data were analyzed using GraphPad Prism 6.0.

| Structure (SMILES) | IC50 (MCF7 cells) [nM] | TGI (Day 19) (MCF-7 tumor) [%] |
| --- | --- | --- |
| Cn1nc(N2CCC(=O)NC2=O)c2cc(F)c(C3(O)CCN(C[C@@H]4CCCC[C@H]4CN4CCN(c5ccc([C@@H]6c7ccc(O)cc7CC[C@@H]6c6ccccc6)cc5)CC4)CC3)cc21 [VI-23, 1-(5-fluoro-6-(4-hydroxy-1-(((1R, 2R)-2-((4-(4-((1R, 2S)-6-hydroxy-2-phenyl-1,2,3,4-tetrahydronaphthalen-1-yl)phenyl)piperazin-1-yl)methyl)cyclohexyl)methyl)piperidin-4-yl)-1-methyl-1H-indazol-3-yl)dihydropyrimidine-2,4 (1H, 3H)-dione] | < 25 | 77.9 |
| C[C@H]1CC(O)(c2cc3c(cc2F)c(N2CCC(=O)NC2=O)nn3C)CCN1C[C@@H]1CCCC[C@H]1CN1CCN(c2ccc([C@@H]3c4ccc(O)cc4CC[C@@H]3c3ccccc3)cc2)CC1 (stereo partly drawn) [VI-30, 1-(5-fluoro-6-((2S)-4-hydroxy-1-(((1R,2R)-2-((4-(4-((1R,2S)-6-hydroxy-2-phenyl-1,2,3,4-tetrahydronaphthalen-1-yl)phenyl)piperazin-1-yl)methyl)cyclohexyl)methyl)-2-methylpiperidin-4-yl)-1-methyl-1H-indazol-3-yl)dihydropyrimidine-2,4 (1H,3H)-dione] | < 50 |  |
| Cn1c(=O)n(C2CCC(=O)NC2=O)c2cccc(N3CCN(C[C@@H]4CCCC[C@H]4CN4CCN(c5ccc([C@@H]6c7ccc(O)cc7CC[C@@H]6c6ccccc6)cc5)CC4)CC3)c21 (stereo partly drawn) [VII-1, 3-(4-(4-(((1R,2R)-2-((4-(4-((1R,2S)-6-hydroxy-2-phenyl-1,2,3,4-tetrahydronaphthalen-1-yl)phenyl)piperazin-1-yl)methyl)cyclohexyl)methyl)piperazin-1-yl)-3-methyl-2-oxo-2,3-dihydro-1H-benzo[d]imidazol-1-yl)piperidine-2,6-dione] | < 50 |  |

The next lines start with results.

| IC50 (MCF7 cells) [nM] | Structure (SMILES) | TGI (Day 19) (MCF-7 tumor) [%] |
| --- | --- | --- |
| < 100 | Cn1c(=O)n(C2CCC(=O)NC2=O)c2ccc(N3CCN(C[C@@H]4CCCC[C@H]4CN4CCN(c5ccc([C@@H]6c7ccc(O)cc7CC[C@@H]6c6ccccc6)cc5)CC4)CC3)cc21 (stereo partly drawn) [VII-2] |  |
| < 100 | Cn1c(=O)n(C2CCC(=O)NC2=O)c2cccc(C3CCN(C[C@@H]4CCCC[C@H]4CN4CCN(c5ccc([C@@H]6c7ccc(O)cc7CC[C@@H]6c6ccccc6)cc5)CC4)CC3)c21 (stereo partly drawn) [VII-3] |  |
